The NIST ThermoML archive (doi:10.1021/acs.jced.6b00563)
Numbers after ± are expanded uncertainties.

Legend:
[1] = an = ratio of the nth substance listed; conditions: 100 kPa, Liquid, a1 = 2; for viscosity: Falling or rolling sphere viscometry; for speed of sound: Sing-around technique in a fixed-path interferometer; for mass density: Vibrating tube method
[2] = refractive index (Na D-line) (dimensionless); an = ratio of the nth substance listed; conditions: 100 kPa, Liquid, Standard Abbe refractometry, a1 = 2
[3] = 100 kPa, Liquid; for viscosity: Falling or rolling sphere viscometry; for speed of sound: Sing-around technique in a fixed-path interferometer; for mass density: Vibrating tube method
[4] = refractive index (Na D-line) (dimensionless); conditions: 100 kPa, Liquid, Standard Abbe refractometry

CC(=O)CCC(=O)O [4-oxopentanoic acid] + C[N+](C)(C)CCO.[Cl-]
Conditions | mass density, [1] [kg/m3] | refractive index, [2] | speed of sound, [1] [m/s] | viscosity, [1] [mPa·s]
293.15 K | 1141.05 ± 1.2 | 1.46987 ± 0.00034 | 1764 ± 2 | 365.3 ± 24
298.15 K | 1137.7 ± 1.2 | 1.46867 ± 0.00034 | 1749 ± 2 | 255.8 ± 14
303.15 K | 1134.34 ± 1.1 | 1.4673 ± 0.00034 | 1734 ± 2 | 185.5 ± 8.2
308.15 K | 1130.99 ± 1.1 | 1.46595 ± 0.00034 | 1720 ± 2 | 136.5 ± 4.6
313.15 K | 1127.63 ± 1.1 | 1.46457 ± 0.00034 | 1707 ± 2 | 103.7 ± 2.6
318.15 K | 1124.3 ± 1.1 | 1.4632 ± 0.00034 | 1693 ± 2 | 81.5 ± 1.5
323.15 K | 1120.98 ± 1.1 | 1.4618 ± 0.00034 | 1680 ± 2 | 64.8 ± 0.9
328.15 K | 1117.68 ± 1.1 | 1.46041 ± 0.00034 | 1667 ± 2 | 51.7 ± 0.6
333.15 K | 1114.69 ± 1.1 | 1.45902 ± 0.00034 | 1654 ± 2 | 43 ± 0.6
338.15 K | 1111.41 ± 1.1 | 1.45761 ± 0.00034 | 1641 ± 2 | 34.1 ± 0.4
343.15 K | 1108.1 ± 1.1 | 1.45623 ± 0.00034 | 1628 ± 2 | 28.6 ± 0.4

CCCCO [butan-1-ol]
Conditions | mass density, [3] [kg/m3] | refractive index, [4] | speed of sound, [3] [m/s] | viscosity, [3] [mPa·s]
298.15 K | 805.75 ± 0.81 | 1.39697 ± 0.00031 | 1240 ± 2 | 2.568 ± 0.032
308.15 K | 798.06 ± 0.81 | 1.39281 ± 0.00031 | 1206 ± 2 | 1.998 ± 0.025
318.15 K | 790.22 ± 0.8 | 1.38857 ± 0.00031 | 1173 ± 2 | 1.578 ± 0.019

CCO [ethanol]
Conditions | mass density, [3] [kg/m3] | refractive index, [4] | speed of sound, [3] [m/s] | viscosity, [3] [mPa·s]
298.15 K | 785.06 ± 0.79 | 1.35905 ± 0.00031 | 1143 ± 2 | 1.083 ± 0.013
308.15 K | 776.4 ± 0.78 | 1.35501 ± 0.00031 | 1109 ± 2 | 0.901 ± 0.011
318.15 K | 767.6 ± 0.78 | 1.35083 ± 0.00031 | 1075 ± 2 | 0.758 ± 0.009

CCCCCO [pentan-1-ol]
Conditions | mass density, [3] [kg/m3] | refractive index, [4] | speed of sound, [3] [m/s] | viscosity, [3] [mPa·s]
298.15 K | 810.88 ± 0.82 | 1.40752 ± 0.00033 | 1276 ± 2 | 3.502 ± 0.044
308.15 K | 803.5 ± 0.82 | 1.40352 ± 0.00033 | 1242 ± 2 | 2.662 ± 0.034
318.15 K | 795.98 ± 0.81 | 1.39942 ± 0.00033 | 1209 ± 2 | 2.061 ± 0.026

CCCO [propan-1-ol]
Conditions | mass density, [3] [kg/m3] | refractive index, [4] | speed of sound, [3] [m/s] | viscosity, [3] [mPa·s]
298.15 K | 799.69 ± 0.81 | 1.38275 ± 0.00032 | 1209 ± 2 | 1.943 ± 0.024
308.15 K | 792.76 ± 0.8 | 1.37857 ± 0.00032 | 1175 ± 2 | 1.549 ± 0.019
318.15 K | 784.45 ± 0.79 | 1.37421 ± 0.00032 | 1141 ± 2 | 1.252 ± 0.016
